Seven compounds from ChEMBL document CHEMBL1201862, “PubChem BioAssay data set” (2004) can be followed below.

Activity calls are given as the source filed them.

The target in one test is T1, Coagulation factor XII (Homo sapiens, UniProt P00748).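 Note: activated factor XIIa alpha cleaving a fluorogenic AMC peptide substrate; inhibitor potency from loss of enzyme activity.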
T1 sequence (P00748 whole entry): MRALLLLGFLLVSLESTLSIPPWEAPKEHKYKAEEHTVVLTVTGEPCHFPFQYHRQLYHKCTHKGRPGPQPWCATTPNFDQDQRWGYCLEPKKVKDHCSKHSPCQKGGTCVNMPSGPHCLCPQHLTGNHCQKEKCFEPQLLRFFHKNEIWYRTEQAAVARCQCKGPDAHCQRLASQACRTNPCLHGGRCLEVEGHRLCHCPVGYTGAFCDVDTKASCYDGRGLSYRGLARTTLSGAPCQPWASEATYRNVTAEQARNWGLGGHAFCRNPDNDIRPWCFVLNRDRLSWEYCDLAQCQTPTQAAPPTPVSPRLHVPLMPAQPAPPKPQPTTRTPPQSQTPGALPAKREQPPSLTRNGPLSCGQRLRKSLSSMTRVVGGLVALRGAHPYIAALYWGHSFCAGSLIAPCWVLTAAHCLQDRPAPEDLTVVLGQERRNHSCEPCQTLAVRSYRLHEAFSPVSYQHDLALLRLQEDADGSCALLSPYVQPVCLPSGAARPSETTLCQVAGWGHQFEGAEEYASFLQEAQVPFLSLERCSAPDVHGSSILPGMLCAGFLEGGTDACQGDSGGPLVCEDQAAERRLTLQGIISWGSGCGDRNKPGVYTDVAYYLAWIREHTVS
The test is classed as functional.

Test [1] concerns the target T2, Long-chain-fatty-acid--AMP ligase FadD28 (Mycobacterium tuberculosis, UniProt P9WQ59).
T2 sequence (P9WQ59 whole entry): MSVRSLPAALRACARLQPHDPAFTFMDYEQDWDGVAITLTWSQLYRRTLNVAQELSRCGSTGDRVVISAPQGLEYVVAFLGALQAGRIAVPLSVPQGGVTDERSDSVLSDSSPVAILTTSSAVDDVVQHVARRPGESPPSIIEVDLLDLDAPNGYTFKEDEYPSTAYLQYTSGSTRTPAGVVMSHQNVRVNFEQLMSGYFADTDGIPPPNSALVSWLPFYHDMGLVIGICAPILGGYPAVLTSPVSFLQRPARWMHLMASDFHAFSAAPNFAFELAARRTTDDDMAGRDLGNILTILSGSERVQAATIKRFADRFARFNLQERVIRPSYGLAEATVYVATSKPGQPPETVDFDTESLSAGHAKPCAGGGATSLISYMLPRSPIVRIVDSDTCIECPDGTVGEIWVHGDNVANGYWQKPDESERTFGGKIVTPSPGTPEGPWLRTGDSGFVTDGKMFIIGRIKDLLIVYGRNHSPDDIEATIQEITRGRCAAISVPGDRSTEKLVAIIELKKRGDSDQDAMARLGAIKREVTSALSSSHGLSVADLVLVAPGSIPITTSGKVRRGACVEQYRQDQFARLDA
In words: Fluorescence polarization aasay to screen for inhibitors that compete for the binding of FadD28 to a bisubstrate Measured in Biochemical System Using Plate Reader - 2147-01_Inhibitor_Dose_CherryPick_Activity. The test is classed as functional, Mycobacterium tuberculosis H37Rv. (In general: Fluorescence polarisation rises when a labelled molecule tumbles more slowly, as on binding a larger partner.)

The target of test [2] is DNA dC->dU-editing enzyme APOBEC-3A (Homo sapiens, UniProt P31941). In words: APOBEC3A DNA deaminase inhibitors, dose response, biochemical (AID 504722). Format: functional.
Chain of DNA dC->dU-editing enzyme APOBEC-3A (P31941 whole entry): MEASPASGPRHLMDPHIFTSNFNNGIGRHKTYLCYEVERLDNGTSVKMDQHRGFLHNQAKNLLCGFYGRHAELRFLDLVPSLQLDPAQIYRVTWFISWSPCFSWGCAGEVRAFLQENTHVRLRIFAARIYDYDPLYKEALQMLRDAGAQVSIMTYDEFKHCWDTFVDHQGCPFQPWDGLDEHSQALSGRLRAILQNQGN
Test [3] addresses Eukaryotic translation initiation factor 4E (Mus musculus, UniProt P63073). As to the kind of experiment: eIF4E–eIF4G protein interaction inhibitors, dose response, biochemical, TR-FRET (AID 855).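 Note: potency for disrupting eIF4E binding to eIF4GI seen as loss of FRET.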 The test is classed as functional.
Test [4] deals with DNA dC->dU-editing enzyme APOBEC-3G (Homo sapiens, UniProt Q9HC16). In words: Dose Response confirmation of small molecule APOBEC3G DNA Deaminase Inhibitors via a fluorescence-based single-stranded DNA deaminase assay. [Related pubchem assays (depositor defined):AID493012, AID493028]. Format: functional.
Chain of DNA dC->dU-editing enzyme APOBEC-3G (Q9HC16 whole entry): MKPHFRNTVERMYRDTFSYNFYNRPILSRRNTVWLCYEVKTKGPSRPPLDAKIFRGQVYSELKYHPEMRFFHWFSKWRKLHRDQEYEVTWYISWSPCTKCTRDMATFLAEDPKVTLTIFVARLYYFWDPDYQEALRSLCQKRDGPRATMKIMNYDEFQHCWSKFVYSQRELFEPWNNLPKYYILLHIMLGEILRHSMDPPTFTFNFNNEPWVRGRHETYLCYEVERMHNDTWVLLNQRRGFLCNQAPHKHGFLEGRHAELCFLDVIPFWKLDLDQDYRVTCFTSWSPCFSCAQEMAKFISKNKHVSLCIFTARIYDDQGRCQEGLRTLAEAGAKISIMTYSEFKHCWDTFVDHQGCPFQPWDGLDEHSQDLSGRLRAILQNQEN
Test [5] addresses T3, Rac GTPase-activating protein 1 (Homo sapiens, UniProt Q9H0H5).
T3 sequence (Q9H0H5 whole entry): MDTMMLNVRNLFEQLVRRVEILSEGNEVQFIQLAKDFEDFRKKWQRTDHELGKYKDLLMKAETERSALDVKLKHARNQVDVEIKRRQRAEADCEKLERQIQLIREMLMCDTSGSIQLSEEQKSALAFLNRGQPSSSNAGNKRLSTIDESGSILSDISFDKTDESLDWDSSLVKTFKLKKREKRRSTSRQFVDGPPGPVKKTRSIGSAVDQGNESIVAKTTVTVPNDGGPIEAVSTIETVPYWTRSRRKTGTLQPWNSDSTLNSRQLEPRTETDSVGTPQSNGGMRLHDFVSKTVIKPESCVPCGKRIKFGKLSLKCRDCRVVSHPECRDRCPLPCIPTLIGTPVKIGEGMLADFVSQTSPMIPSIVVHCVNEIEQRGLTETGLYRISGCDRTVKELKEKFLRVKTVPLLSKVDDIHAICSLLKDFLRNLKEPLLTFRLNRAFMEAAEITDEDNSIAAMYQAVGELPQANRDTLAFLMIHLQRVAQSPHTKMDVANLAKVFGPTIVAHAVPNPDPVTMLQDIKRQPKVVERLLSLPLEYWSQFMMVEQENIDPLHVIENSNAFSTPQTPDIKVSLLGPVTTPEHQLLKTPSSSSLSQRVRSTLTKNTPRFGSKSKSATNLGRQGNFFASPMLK
In words: MgcRacGAP GTPase-activating activity inhibitors, confirmation, biochemical, ADP Hunter fluorescence, primary and confirmatory (AID 624330). The test is classed as functional.

The target of another test is Nonstructural protein 1 (Influenza A virus, UniProt Q194T2). The test is classed as functional, Influenza A virus (A/California/07/2009(H1N1)).
The target of test [6] is T4, Heat shock factor protein 1 (Mus musculus, UniProt P38532).
T4 sequence (P38532 whole entry): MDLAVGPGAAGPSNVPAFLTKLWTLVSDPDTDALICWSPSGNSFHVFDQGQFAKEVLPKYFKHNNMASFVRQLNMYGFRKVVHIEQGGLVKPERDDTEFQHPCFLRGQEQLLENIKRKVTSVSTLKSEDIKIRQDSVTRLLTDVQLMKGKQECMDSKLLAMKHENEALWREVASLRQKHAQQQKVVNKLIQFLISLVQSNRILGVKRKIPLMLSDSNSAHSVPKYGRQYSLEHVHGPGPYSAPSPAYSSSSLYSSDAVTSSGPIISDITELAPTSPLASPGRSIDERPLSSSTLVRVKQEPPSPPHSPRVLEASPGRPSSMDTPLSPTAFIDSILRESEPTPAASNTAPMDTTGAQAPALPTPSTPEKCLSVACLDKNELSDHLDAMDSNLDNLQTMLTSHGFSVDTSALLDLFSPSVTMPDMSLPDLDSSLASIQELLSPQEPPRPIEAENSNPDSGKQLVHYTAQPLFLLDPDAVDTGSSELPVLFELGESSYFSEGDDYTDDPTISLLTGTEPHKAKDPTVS
As to the kind of experiment: HSF1 potentiators in luciferase reporter cells, confirmation, cell-based, NIH3T3, luminescence, dose retest (AID 435004).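 Note: stress induced by proteasome inhibitor MG132 added 30 min after compound; luciferase reporter driven by HSF1 response element in NIH3T3 cells; actives raise luminescence as potentiators of the MG132 stress response.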 The test is classed as functional. On the technique in general: Reporter assays use an easily measured gene product as a stand-in for the process of interest.

In test [7] the target is T5, Replicative DNA helicase DnaB (Mycobacterium tuberculosis, UniProt P9WMR3).
T5 sequence (P9WMR3 whole entry): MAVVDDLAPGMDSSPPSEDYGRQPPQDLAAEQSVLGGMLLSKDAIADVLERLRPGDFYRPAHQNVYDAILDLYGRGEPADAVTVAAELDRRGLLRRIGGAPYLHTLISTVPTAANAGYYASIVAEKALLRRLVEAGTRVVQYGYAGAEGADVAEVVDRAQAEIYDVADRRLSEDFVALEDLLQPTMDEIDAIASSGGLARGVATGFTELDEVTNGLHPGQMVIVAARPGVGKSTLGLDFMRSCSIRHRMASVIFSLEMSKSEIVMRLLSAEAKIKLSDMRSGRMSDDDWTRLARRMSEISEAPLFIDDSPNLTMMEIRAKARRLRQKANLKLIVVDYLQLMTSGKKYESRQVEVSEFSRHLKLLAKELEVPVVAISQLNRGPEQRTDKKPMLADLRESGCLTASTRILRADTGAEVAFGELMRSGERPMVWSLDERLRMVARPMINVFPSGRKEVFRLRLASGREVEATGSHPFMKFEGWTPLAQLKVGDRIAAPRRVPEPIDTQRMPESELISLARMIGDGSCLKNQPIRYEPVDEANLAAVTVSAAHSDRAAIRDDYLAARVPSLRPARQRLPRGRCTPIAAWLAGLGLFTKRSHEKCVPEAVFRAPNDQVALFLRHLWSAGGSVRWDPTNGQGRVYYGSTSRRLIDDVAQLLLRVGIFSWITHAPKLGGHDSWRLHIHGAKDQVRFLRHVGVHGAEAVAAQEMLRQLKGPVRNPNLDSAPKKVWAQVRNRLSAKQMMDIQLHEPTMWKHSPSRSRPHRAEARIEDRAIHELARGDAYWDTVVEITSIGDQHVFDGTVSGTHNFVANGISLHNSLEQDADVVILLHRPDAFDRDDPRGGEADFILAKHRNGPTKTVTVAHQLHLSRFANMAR
In words: DnaB intein splicing inhibitors, dose response, biochemical, cell-free fluorescence (AID 449749). The test is classed as functional.

In the next test the target is T6, Protein RecA (Mycobacterium tuberculosis, UniProt P9WHJ3).
T6 sequence (P9WHJ3 whole entry): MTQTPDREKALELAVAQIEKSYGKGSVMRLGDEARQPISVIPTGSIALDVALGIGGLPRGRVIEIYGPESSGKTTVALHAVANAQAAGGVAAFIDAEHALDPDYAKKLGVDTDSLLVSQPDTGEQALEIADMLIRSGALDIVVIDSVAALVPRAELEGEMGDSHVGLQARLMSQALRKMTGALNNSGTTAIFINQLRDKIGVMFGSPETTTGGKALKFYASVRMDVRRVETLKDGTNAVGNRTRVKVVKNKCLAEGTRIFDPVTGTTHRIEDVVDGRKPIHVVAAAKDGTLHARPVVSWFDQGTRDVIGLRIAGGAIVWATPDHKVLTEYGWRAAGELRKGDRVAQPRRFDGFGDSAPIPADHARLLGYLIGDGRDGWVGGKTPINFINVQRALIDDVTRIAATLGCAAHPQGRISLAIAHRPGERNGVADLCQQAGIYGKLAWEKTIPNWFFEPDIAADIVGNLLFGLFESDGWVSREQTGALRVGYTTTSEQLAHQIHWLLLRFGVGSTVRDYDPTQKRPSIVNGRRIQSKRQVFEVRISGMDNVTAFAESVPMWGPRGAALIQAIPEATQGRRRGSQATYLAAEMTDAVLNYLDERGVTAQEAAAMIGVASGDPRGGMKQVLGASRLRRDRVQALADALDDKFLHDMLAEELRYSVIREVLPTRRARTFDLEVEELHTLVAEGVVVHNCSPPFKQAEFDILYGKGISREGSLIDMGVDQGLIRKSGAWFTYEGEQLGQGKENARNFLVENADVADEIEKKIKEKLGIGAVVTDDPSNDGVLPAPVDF
As to the kind of experiment: Fluorescence Cell-Free Homogeneous Dose Retest to Identify Inhibitors of RecA-Intein Splicing Activity. [Related pubchem assays (depositor defined):AID2097, AID2223, AID489010, AID492950]. Format: functional.

The target of test [8] is Dual specificity tyrosine-phosphorylation-regulated kinase 1A (Rattus norvegicus, UniProt Q63470). The test is classed as biochemical, Homo sapiens.
A further test deals with Trypsin (Sus scrofa, UniProt P00761). As to the kind of experiment: porcine trypsin inhibitors, dose response, selectivity assay for Rce1 protease inhibitor project, biochemical, quenched peptide fluorescence, cherry-pick (AID 488789).
Chain of Trypsin (P00761 whole entry): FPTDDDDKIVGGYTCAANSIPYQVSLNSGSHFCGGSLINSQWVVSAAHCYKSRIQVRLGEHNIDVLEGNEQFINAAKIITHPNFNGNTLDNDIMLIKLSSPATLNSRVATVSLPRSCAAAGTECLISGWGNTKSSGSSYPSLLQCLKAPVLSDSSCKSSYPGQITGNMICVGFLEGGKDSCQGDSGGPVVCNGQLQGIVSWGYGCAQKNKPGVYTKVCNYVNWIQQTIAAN
In test [9] the target is Peroxisome proliferator-activated receptor gamma/Nuclear receptor coactivator 2 (Homo sapiens, UniProt P37231). Format: functional.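 Note: agonist potency for raising coactivator recruitment to the receptor.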
Chain of Peroxisome proliferator-activated receptor gamma/Nuclear receptor coactivator 2 (P37231 whole entry): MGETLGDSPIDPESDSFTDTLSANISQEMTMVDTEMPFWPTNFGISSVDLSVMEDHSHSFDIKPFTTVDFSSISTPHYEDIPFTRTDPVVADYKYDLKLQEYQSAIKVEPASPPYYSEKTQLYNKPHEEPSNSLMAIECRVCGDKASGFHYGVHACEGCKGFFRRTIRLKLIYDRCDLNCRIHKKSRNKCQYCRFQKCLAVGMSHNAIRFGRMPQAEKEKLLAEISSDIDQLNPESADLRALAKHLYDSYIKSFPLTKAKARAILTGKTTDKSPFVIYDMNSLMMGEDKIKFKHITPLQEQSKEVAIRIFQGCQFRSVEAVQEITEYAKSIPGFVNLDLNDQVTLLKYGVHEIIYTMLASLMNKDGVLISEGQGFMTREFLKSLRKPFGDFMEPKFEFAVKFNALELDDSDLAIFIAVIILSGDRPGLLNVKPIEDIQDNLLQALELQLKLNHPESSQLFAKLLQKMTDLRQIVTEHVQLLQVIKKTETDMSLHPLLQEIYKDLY
Chain of Peroxisome proliferator-activated receptor gamma/Nuclear receptor coactivator 2 (Q15596 whole entry, further chain): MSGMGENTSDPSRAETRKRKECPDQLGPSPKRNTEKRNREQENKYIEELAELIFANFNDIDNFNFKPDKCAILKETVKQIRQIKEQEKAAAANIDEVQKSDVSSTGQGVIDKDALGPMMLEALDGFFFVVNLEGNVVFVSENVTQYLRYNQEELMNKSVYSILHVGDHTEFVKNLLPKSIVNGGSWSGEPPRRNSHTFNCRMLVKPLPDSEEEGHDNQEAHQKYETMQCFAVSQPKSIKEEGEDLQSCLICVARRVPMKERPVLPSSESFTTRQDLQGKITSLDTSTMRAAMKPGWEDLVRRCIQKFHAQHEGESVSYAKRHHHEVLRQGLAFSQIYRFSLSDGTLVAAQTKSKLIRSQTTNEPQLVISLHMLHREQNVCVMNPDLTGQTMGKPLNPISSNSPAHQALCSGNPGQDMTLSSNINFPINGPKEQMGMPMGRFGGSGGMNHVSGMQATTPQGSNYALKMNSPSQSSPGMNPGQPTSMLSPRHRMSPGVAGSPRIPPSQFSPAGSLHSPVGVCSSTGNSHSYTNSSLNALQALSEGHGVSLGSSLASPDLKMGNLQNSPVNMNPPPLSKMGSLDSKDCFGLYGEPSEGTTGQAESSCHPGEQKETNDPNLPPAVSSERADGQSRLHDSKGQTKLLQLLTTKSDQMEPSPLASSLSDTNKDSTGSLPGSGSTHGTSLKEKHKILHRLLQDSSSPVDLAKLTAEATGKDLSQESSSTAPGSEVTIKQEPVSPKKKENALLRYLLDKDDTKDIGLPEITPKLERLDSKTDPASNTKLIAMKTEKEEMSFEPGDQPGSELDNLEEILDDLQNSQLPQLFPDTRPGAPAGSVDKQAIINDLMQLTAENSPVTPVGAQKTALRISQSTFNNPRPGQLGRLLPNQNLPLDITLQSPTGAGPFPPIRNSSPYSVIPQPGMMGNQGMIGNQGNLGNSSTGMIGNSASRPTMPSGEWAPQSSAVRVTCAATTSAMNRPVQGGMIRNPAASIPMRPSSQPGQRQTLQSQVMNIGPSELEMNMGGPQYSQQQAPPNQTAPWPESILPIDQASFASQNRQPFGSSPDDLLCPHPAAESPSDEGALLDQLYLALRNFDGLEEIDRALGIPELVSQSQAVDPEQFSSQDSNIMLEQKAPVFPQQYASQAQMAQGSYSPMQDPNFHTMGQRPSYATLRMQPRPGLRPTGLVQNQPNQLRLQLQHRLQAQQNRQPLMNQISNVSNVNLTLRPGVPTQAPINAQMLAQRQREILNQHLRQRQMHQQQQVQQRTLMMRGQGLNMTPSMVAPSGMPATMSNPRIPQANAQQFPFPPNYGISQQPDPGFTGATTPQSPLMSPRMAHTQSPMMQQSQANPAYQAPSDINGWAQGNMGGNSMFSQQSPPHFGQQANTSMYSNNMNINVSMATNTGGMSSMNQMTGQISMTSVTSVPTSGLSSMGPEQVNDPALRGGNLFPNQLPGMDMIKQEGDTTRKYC
Test [10] has as its target Peroxisome proliferator-activated receptor gamma/Nuclear receptor coactivator 1 (Homo sapiens, UniProt P37231). Format: functional.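 Note: agonist potency as compounds enhance coactivator SRC-1 recruitment to PPARgamma.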
Test [11] deals with Peroxisome proliferator-activated receptor gamma/Nuclear receptor coactivator 3 (Homo sapiens, UniProt P37231). Format: functional.
Chain of Peroxisome proliferator-activated receptor gamma/Nuclear receptor coactivator 3 (P37231 whole entry): as the sequence (P37231 whole entry) above
Chain of Peroxisome proliferator-activated receptor gamma/Nuclear receptor coactivator 3 (Q9Y6Q9 whole entry, further chain): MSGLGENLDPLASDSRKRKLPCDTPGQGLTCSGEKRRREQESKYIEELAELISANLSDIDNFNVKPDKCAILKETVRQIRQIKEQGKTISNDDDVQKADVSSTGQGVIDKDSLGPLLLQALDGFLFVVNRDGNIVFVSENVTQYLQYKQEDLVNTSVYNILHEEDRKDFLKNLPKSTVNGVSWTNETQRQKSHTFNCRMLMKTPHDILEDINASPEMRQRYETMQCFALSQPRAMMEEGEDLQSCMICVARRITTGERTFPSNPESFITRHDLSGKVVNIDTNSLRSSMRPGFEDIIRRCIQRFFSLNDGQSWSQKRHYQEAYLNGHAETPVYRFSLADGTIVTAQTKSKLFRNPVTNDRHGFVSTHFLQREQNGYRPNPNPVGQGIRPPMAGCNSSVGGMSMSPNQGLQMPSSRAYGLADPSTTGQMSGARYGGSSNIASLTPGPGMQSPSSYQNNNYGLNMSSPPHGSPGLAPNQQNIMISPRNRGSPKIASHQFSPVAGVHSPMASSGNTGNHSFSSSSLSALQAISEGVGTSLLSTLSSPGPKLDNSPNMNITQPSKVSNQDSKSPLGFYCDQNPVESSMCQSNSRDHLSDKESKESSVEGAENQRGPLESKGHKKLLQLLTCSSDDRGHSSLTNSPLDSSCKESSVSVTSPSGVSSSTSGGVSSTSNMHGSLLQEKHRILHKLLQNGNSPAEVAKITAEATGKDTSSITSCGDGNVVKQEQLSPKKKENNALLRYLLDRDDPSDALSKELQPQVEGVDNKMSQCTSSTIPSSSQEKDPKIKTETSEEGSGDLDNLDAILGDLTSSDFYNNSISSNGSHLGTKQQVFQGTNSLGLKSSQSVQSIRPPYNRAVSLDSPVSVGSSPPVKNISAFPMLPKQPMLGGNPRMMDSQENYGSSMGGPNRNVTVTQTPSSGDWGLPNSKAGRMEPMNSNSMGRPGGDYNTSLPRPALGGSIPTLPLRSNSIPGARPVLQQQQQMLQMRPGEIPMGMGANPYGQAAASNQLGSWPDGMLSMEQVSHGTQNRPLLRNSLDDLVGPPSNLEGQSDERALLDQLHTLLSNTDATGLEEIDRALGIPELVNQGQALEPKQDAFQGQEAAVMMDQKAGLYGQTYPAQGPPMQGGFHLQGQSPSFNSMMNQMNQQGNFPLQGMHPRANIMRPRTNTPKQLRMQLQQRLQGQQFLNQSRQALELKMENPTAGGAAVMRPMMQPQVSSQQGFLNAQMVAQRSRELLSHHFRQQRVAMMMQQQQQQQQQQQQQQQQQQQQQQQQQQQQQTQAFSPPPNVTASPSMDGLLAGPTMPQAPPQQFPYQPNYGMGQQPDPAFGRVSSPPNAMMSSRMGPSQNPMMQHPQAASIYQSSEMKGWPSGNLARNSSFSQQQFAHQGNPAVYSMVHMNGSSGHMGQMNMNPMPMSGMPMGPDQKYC

Chain of Eukaryotic translation initiation factor 4E (P63073 whole entry): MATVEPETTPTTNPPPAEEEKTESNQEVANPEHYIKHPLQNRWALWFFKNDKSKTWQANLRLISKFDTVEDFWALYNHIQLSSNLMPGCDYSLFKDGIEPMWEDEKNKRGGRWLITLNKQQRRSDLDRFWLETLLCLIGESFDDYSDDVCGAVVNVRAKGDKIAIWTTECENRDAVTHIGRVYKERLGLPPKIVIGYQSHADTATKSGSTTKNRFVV

For orientation: IC50 means the midpoint of a concentration-inhibition curve. One may read the AC50 as the concentration at which the activity in the assay is half-maximal. As to `Cc1ccc(C2=NN(S(=O)(=O)c3ccccc3)C(c3ccccc3O)C2)cc1` (stereo unspecified), the IC50 at Coagulation factor XII was > 50 µM (inactive). Moreover, in test [1], the AC50 was > 100 µM (inactive).

Regarding `CCn1c(=O)c2c3c(sc2n2c(=S)[nH]nc12)CCC3`, the IC50 in test [2] is > 100 µM (inactive); in test [3], > 64 µM (inactive); in [4] it was 4.78 µM (active); in test [5], 26.4 µM (active).

Regarding `CCOc1ccc(N(CC(=O)Nc2ccc3c(c2)OCCO3)S(=O)(=O)c2c(C)noc2C)cc1`, the IC50 on Coagulation factor XII is > 50 µM (inactive).

For orientation: EC50 means the concentration giving half of the maximal effect. Consider `O=C1c2ccccc2-c2onc3ccc(N4CCCC4)c1c23`, for which the results for the IC50 (in test [3]; at Nonstructural protein 1) were 50 µM (inactive) and 23.6 µM (active), respectively. For the same compound, the figures for the EC50 (in test [6]; on Protein RecA) were > 260 µM (inactive) and 0.606 µM (active), respectively. For the same compound, the AC50 in [7] is > 380 µM (inactive); in test [8], 1.67 µM (active); in test [1], 15.1 µM (active).

For the compound `O=C(COC(=O)COc1ccccc1Cl)Nc1ccccc1OC(F)F`, the IC50 at Coagulation factor XII was > 50 µM (inactive).

In the case of `COc1ccc2oc(-c3ccccc3)c(C(=O)N3CCOCC3)c2c1`, the concentration at half-maximal activity (AC50) on Trypsin was 4.55 µM (active).

Turning to `CC(C)(C)c1cc(C(=S)N2CCN(CCO)CC2)cc(C(C)(C)C)c1O`, the EC50 in test [9], in test [10] and in [11] was > 79.4 µM (not active) throughout. The IC50 in test [2] was > 100 µM (inactive); in test [4] it was 13.4 µM (active).
